Laboratory results from patent US9096591B2, “Tetracyclic compounds” (Medivation Technologies, Inc., priority 2007, dated 2015).

Key:
[1] = tested on: synaptosomes of cortex of rat brain; experiment: Glutamate-induced 45Ca2+ uptake into synaptosomes; format: biochemical, Wistar rats; settings: for % Ca of control (control-100%), glutamate-induced 45Ca2+ uptake into synaptosomes: rat cortex synaptosomes
How it was run: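 Cortical synaptosomes (P2 fraction) from 9-10-day-old Wistar rats, ~1.5-2 mg/ml protein in HEPES-buffered saline with glucose, pH 7.4, stimulated 5 min with 200 μM glutamate at 37° C. 45Ca2+ uptake measured by filtration and scintillation counting; specific uptake with compound expressed as percentage of glutamate-induced uptake, each corrected for unstimulated uptake.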

[2] = biological target: T1, human recombinant histamine H2 receptor (Homo sapiens, UniProt P25021); experiment: Histamine H2 radioligand binding ([125I]Aminopotentidine); settings: read-out: Inhibition of ligand binding, Hist. H2
T1 construct: expressed in transfected cells; host or cells: CHO-K1 cells
How it was run: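 This radioligand binding assay measured displacement of [125I]Aminopotentidine from recombinant human histamine H2 receptors. Compounds were dissolved in 1% DMSO vehicle. Specific binding was calculated by subtracting non-specific binding, defined using 3 μM Tiotidine, and activity was reported as percentage inhibition of that specific binding.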

[3] = biological target: T2, human recombinant adrenergic α1D receptor (Homo sapiens, UniProt P25100); experiment: Adrenergic α1D radioligand binding ([3H]Prozosin); parameters: Inhibition of ligand binding, Adren. alpha1D: concentration or dose not given beside the values; settings: percent inhibition of specific binding
T2 construct: expressed in transfected cells; host or cells: HEK-293 cells
T2 sequence (P25100 1-572): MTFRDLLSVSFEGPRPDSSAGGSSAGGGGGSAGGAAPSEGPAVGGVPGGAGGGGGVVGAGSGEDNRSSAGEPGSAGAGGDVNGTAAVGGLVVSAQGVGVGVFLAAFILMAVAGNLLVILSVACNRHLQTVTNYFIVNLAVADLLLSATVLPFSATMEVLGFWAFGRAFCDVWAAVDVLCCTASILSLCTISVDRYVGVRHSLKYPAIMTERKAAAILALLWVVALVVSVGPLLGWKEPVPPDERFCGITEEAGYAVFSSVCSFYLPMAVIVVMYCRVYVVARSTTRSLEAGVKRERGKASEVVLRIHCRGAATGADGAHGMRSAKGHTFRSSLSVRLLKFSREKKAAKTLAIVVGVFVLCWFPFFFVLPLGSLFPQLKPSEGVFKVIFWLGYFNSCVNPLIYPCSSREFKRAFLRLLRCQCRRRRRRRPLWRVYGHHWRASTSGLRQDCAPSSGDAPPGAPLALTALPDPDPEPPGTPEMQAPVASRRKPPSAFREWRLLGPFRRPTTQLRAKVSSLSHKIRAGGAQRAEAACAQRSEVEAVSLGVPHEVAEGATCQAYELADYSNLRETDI
Experimental: Compounds of invention were incubated with 0.6 nM [^3H]Prozosin for 60 minutes at 25° C. Non-specific binding was estimated in the presence of 10 μM phentolamine. Receptor proteins were filtered and washed, the filters were then counted to determine [^3H]Prozosin specifically bound. […] Biochemical assay results are presented as the percent inhibition of specific binding in Table 6.

[4] = biological target: T3, human recombinant serotonin (5-Hydroxytryptamine) 5-HT2A receptor (Homo sapiens, UniProt P28223); experiment: Serotonin 5-HT2A radioligand binding ([3H]Ketanserin); parameters: Inhibition of ligand binding, Ser. 5-HT2A: concentration or dose not given beside the values; settings: percent inhibition of specific binding
T3 construct: expressed in transfected cells; host or cells: CHO-K1 cells
Experimental: Compounds of the invention were incubated with 0.5 nM [^3H]Ketanserin for 60 minutes at 25° C. Non-specific binding was estimated in the presence of 1 μM Mianserin. Receptor proteins were filtered and washed, the filters were then counted to determine [^3H]Ketanserin specifically bound. […] Biochemical assay results are presented as the percent inhibition of specific binding in Table 6.

[5] = biological target: T4, human recombinant serotonin (5-Hydroxytryptamine) 5-HT2C receptor (Homo sapiens, UniProt P28335); experiment: Serotonin 5-HT2C radioligand binding ([3H]Mesulergine); parameters: Inhibition of ligand binding, Ser. 5-HT2C: concentration or dose not given beside the values; settings: percent inhibition of specific binding
T4 construct: expressed in transfected cells; host or cells: CHO-K1 cells
T4 sequence (P28335 33-458): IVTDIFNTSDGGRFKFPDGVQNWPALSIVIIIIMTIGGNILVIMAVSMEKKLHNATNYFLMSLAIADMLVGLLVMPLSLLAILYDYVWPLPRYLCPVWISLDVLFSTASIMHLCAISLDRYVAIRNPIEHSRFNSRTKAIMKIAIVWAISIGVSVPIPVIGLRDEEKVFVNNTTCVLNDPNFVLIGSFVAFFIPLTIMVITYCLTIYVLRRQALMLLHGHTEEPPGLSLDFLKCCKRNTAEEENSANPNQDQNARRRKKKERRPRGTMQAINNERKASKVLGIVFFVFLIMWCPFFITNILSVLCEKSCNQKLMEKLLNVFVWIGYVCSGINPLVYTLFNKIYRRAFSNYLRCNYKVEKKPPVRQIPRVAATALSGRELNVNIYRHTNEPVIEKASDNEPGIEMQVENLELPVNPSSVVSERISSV
Experimental: Compounds of the invention were incubated with 1 nM [^3H]Mesulergine for 60 minutes at 25° C. Non-specific binding was estimated in the presence of 1 μM Mianserin. Receptor proteins were filtered and washed, the filters were then counted to determine [^3H]Mesulergine specifically bound. […] Biochemical assay results are presented as the percent inhibition of specific binding in Table 6.

[6] = biological target: T5, human recombinant serotonin (5-Hydroxytryptamine) 5-HT6 receptor (Homo sapiens, UniProt P50406); experiment: Serotonin 5-HT6 radioligand binding ([3H]LSD); parameters: Inhibition of ligand binding, Ser. 5-HT6: concentration or dose not given beside the values; settings: percent inhibition of specific binding
T5 construct: expressed in transfected cells; host or cells: human HeLa cells
Excerpt: Receptor proteins were filtered and washed, the filters were then counted to determine [3H]LSD specifically bound. […] Biochemical assay results are presented as the percent inhibition of specific binding in Table 6.

T3 sequence (P28223 whole entry): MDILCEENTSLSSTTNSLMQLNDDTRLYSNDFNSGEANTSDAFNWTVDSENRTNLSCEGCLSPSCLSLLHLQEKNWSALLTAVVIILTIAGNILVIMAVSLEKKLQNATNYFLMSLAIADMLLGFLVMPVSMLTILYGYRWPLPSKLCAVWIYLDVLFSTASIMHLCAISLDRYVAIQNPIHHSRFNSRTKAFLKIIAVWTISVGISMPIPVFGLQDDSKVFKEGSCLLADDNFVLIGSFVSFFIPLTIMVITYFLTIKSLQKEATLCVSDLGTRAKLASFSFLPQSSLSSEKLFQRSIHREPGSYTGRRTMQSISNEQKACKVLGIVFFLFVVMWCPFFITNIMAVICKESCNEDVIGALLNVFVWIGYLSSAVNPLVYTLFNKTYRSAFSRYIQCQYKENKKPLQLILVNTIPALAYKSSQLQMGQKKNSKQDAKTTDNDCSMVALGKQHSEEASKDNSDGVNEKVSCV
T5 sequence (P50406 whole entry): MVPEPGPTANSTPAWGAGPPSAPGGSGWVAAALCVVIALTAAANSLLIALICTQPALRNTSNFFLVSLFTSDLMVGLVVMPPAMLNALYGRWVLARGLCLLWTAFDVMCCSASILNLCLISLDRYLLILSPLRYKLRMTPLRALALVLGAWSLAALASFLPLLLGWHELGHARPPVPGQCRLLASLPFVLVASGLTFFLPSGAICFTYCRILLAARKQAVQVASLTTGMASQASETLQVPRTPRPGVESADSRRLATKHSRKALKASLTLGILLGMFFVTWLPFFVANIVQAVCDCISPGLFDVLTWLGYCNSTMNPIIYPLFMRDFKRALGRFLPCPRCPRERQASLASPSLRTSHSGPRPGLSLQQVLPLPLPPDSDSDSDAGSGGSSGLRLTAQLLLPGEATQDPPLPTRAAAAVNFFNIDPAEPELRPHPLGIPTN
T1 sequence (P25021 whole entry): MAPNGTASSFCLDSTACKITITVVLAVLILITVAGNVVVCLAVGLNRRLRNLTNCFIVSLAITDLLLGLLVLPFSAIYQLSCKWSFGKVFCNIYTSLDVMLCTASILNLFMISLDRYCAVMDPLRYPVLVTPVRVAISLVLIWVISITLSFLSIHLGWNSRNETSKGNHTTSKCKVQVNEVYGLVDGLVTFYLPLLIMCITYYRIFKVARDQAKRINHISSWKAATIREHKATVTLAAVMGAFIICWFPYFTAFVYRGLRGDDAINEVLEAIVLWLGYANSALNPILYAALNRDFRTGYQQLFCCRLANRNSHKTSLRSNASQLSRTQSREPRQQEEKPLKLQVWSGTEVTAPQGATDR

CN1CCc2c(c3cc(Cl)ccc3n2CCc2nc(-c3ccccc3)cs2)C1 [Compound C1-8]
inhibition of glutamate-induced 45Ca2+ uptake into synaptosomes ([1]; 1-5 μM): ~14%
glutamate-induced 45Ca2+ uptake into synaptosomes of rat cortex, % of control ([1]; 50-100 μM): 122%
% Ca of control (control-100%), glutamate-induced 45Ca2+ uptake into synaptosomes ([1]; compound 0.1 μM): 99.2 ± 1.4%
% Ca of control (control-100%), glutamate-induced 45Ca2+ uptake into synaptosomes ([1]; compound 0.5 μM): 96.7 ± 2.4%
% Ca of control (control-100%), glutamate-induced 45Ca2+ uptake into synaptosomes ([1]; compound 1 μM): 86.1 ± 0.1%
% Ca of control (control-100%), glutamate-induced 45Ca2+ uptake into synaptosomes ([1]; compound 5 μM): 87.7 ± 2.7%
% Ca of control (control-100%), glutamate-induced 45Ca2+ uptake into synaptosomes ([1]; compound 10 μM): 99.3 ± 3.0%
% Ca of control (control-100%), glutamate-induced 45Ca2+ uptake into synaptosomes ([1]; compound 50 μM): 122.4 ± 1.6%
% Ca of control (control-100%), glutamate-induced 45Ca2+ uptake into synaptosomes ([1]; compound 100 μM): 121.7 ± 13.9%

Cc1ccc2c(c1)c1c(n2CCc2ccc(C)nc2)CCN(C)C1 [Dimebon, dimebon, reference compound]
inhibition at 1 µM [2]: 83%
Inhibition of ligand binding, Adren. alpha1D [3]: 91%
Inhibition of ligand binding, Ser. 5-HT2A [4]: 82%
Inhibition of ligand binding, Ser. 5-HT2C [5]: 86%
Inhibition of ligand binding, Ser. 5-HT6 [6]: 95%
concentration at which glutamate-induced 45Ca2+ uptake into synaptosomes was inhibited [1]: 0.25 to 10 µM
inhibition of glutamate-induced 45Ca2+ uptake into synaptosomes ([1]; 1 μM (maximal inhibition)): 40%
glutamate-induced 45Ca2+ uptake into synaptosomes of rat cortex, % Ca of control (control-100%) ([1]; C 0.1 μM): 120 ± 3.3%
glutamate-induced 45Ca2+ uptake into synaptosomes of rat cortex, % Ca of control (control-100%) ([1]; C 0.1 μM, listed as dimebon): 120.4%
glutamate-induced 45Ca2+ uptake into synaptosomes of rat cortex, % Ca of control (control-100%) ([1]; C 0.5 μM): 64.4 ± 12.4%
glutamate-induced 45Ca2+ uptake into synaptosomes of rat cortex, % Ca of control (control-100%) ([1]; C 1.0 μM): 61.3 ± 8.1%
glutamate-induced 45Ca2+ uptake into synaptosomes of rat cortex, % Ca of control (control-100%) ([1]; C 5.0 μM): 83.2 ± 4.1%
glutamate-induced 45Ca2+ uptake into synaptosomes of rat cortex, % Ca of control (control-100%) ([1]; C 10 μM): 89.3 ± 1.2%
glutamate-induced 45Ca2+ uptake into synaptosomes of rat cortex, % Ca of control (control-100%) ([1]; C 25 μM): 97.2 ± 8.5%
glutamate-induced 45Ca2+ uptake into synaptosomes of rat cortex, % Ca of control (control-100%) ([1]; C 50 μM): 98.7 ± 8.8%
glutamate-induced 45Ca2+ uptake into synaptosomes of rat cortex, % Ca of control (control-100%) ([1]; C 100 μM): 132 ± 2.9%
glutamate-induced 45Ca2+ uptake into synaptosomes of rat cortex, % Ca of control (control-100%) ([1]; C 100 μM, listed as dimebon): 132%

CN1CCc2c(c3cc(Cl)ccc3n2CCc2ccc(C(F)(F)F)nc2)C1 [Compound 250]
inhibition at 1 µM [2]: 54%
Inhibition of ligand binding, Adren. alpha1D [3]: 93%
Inhibition of ligand binding, Ser. 5-HT2A [4]: 101%
Inhibition of ligand binding, Ser. 5-HT2C [5]: 79%
Inhibition of ligand binding, Ser. 5-HT6 [6]: 84%
